Article PMC8421423, “Cellular model system to dissect the isoform-selectivity of Akt inhibitors” (Nature Communications, 2021)
Several values for one entry are separate records, joined by “and”; a condition that tells them apart may be missing. Equal entries are not always repeated. Where two headings read alike, the source gives them in different places.

Legend:
[1] = molecular target: Akt3 (Homo sapiens, UniProt Q9Y243); experiment: STK HTRF KinEASE activity-based assay (IC50)
[2] = molecular target: T1, Akt2 (Homo sapiens, UniProt P31751); experiment: STK HTRF KinEASE activity-based assay (IC50)
Protocol: The biochemical half maximal inhibitory concentrations (IC50) were determined with the STK HTRF KinEASE assay (Cisbio) according to the manufactor’s instructions. Briefly: 5 µL Kinase solution and 2.5 µL inhibitor solution (8% DMSO in HTRF buffer) were incubated for 1 h before the reaction was started by addition of 2.5 µL starting solution containing ATP and substrate peptide. […] After reaction completion (Akt1: 60 min, Akt2: 20 min, Akt3: 15 min), 10 µL of stop solution were added. […] The quotient of both intensities were recorded at eight different inhibitor concentrations and data fit to a Hill 4-parameter equation with Quattro software suite (Quattro Research GmbH, Martinsried, Germany). Each reaction was performed in duplicates and at least three independent determinations of each IC50 were made.

[3] = molecular target: T1, Akt2; experiment: PhosphoSens continuous fluorometric kinetic enzyme assay
Protocol: (§1) By addition of either 8 nM Akt1, 2 nM Akt2, or 5 nM Akt3 (final concentrations) the reactions were initiated. […] Afterwards the kobs-values were plotted versus the inhibitor concentrations [I] and then fit to the following hyperbolic Eq.

[4] = tested on: Ba/F3^myr-Akt1 cells; experiment: CellTiter-Glo cell viability assay
[5] = molecular target: T2, Akt1 (Homo sapiens, UniProt P31749); experiment: STK HTRF KinEASE activity-based assay (IC50)
[6] = tested on: Ba/F3^myr-Akt2 cells; experiment: CellTiter-Glo cell viability assay
Protocol: (§2) On day 0, cells were plated into white 384-well cell culture plates (Greiner Bio-One) using a Multidrop reagent dispenser (Thermo Fisher Scientific) at cell numbers that ensure linear and optimal luminescent signal intensity (Ba/F3myr-Akt1: 600 cells/well, Ba/F3myr-Akt2: 800 cells/well, Ba/F3myr-Akt3: 800 cells/well). […] Cell viability was analyzed on day 4 using the CellTiter-Glo Assay (Promega) as per the manufacturer’s instructions. […] All experimental points were measured in duplicates for each plate and were replicated in at least three plates.

[7] = molecular target: T2, Akt1; experiment: PhosphoSens continuous fluorometric kinetic enzyme assay
Protocol: as §1

[8] = tested on: Ba/F3^myr-Akt3 cells; experiment: CellTiter-Glo cell viability assay
Protocol: as §2

[9] = tested on: parental Ba/F3 cells; experiment: CellTiter-Glo cell viability assay; type: cell-based, murine
[10] = cell viability assay Ba/F3 myr-Akt cells, log units

T2 sequence (P31749 whole entry): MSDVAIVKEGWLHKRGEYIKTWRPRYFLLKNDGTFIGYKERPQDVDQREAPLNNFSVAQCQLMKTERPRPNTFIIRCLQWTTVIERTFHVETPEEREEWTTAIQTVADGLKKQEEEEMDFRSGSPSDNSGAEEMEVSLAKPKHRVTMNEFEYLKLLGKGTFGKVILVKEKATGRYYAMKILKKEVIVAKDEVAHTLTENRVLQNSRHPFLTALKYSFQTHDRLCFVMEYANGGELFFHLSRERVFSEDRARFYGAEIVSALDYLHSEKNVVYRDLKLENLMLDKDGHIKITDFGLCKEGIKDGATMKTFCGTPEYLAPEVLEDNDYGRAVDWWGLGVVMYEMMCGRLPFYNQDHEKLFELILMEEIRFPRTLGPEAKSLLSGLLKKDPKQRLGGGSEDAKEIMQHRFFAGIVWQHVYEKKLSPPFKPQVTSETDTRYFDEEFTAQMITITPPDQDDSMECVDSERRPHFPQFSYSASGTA
T1 sequence (P31751 whole entry): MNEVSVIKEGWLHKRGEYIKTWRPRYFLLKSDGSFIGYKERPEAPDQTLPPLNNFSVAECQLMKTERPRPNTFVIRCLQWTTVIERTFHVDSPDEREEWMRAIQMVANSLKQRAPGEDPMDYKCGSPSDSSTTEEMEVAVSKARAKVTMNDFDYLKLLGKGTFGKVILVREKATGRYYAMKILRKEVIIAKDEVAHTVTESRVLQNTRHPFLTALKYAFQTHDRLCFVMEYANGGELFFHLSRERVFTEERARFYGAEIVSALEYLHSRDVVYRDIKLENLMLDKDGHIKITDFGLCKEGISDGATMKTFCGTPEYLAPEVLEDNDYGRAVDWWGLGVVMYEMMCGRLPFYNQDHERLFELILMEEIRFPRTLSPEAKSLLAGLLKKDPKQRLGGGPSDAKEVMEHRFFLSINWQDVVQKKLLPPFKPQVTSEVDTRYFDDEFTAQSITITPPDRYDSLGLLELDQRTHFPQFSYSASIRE
Chain of Akt3 (Q9Y243 whole entry): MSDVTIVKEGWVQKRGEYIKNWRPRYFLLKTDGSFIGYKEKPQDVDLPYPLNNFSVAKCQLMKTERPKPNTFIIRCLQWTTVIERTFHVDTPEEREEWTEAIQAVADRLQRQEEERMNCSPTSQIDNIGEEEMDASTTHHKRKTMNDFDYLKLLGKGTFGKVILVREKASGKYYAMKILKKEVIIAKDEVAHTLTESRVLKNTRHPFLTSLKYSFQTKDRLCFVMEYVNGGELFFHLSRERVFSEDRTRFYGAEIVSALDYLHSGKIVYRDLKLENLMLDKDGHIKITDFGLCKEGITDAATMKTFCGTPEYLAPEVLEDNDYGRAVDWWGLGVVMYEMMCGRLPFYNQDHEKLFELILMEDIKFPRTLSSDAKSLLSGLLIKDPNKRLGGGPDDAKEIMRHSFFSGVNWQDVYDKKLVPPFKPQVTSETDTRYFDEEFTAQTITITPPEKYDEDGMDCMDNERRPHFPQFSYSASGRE

IC50 ([1]; HTRF IC50 Akt3, Mean, mean of replicates): 5270 nM | IC50 ([1]; HTRF IC50 Akt3, individual determinations, single replicates): 3820 nM and 6130 nM and 5850 nM | IC50 ([1]; IC50 Akt3, HTRF, ATP at KM, 1 h preincubation): 5270 ± 1030 nM | IC50 ([2]; HTRF IC50 Akt2, Mean, mean of replicates): 38.4 nM | IC50 ([2]; HTRF IC50 Akt2, individual determinations, single replicates): 36.7 nM and 47.9 nM and 40 nM | IC50 ([2]; IC50 Akt2, HTRF, ATP at KM, 1 h preincubation): 39 ± 6 nM | Ki ([3]; Ki Akt2): 11 ± 2 nM | Ki ([3]; Ki Akt2, Mean, mean of replicates): 11.3 nM | Ki ([3]; Ki Akt2, individual determinations, single replicates): 10.1 nM and 10.2 nM and 13.6 nM | kinact/KI ([3]; read-out: kinact /Ki Akt2): 15000 ± 1000 M⁻¹ s⁻¹ | kinact/KI ([3]; read-out: kinact /Ki Akt2, Mean, mean of replicates): 15000 M⁻¹ s⁻¹ | kinact/KI ([3]; read-out: kinact /Ki Akt2, individual determinations, single replicates): 15000 M⁻¹ s⁻¹ | kinact ([3]; read-out: kinact Akt2): 0.000167 s⁻¹ | kinact ([3]; read-out: kinact Akt2, individual determinations, single replicates): 0.00015 s⁻¹ | kinact Akt2, individual determinations ([3]; single replicates): 0.009 min⁻¹ and 0.013 min⁻¹ | EC50 ([4]; Mus musculus, read-out: CTG BaF3myr-Akt1, Mean, mean of replicates): 17800 nM | EC50 ([4]; read-out: CTG BaF3myr-Akt1, individual determinations, single replicates): 14100 nM and 13100 nM and 26300 nM | IC50 ([5]; HTRF IC50 Akt1, Mean, mean of replicates): 90.6 nM | IC50 ([5]; HTRF IC50 Akt1, individual determinations, single replicates): 106 nM and 73.7 nM and 92.3 nM | IC50 ([5]; IC50 Akt1, HTRF, ATP at KM, 1 h preincubation): 91 ± 13 nM | Log ratio IC50 [Akt] / IC50 [Akt], Akt1 / Akt2 ([5]; biochemical activity based assay, log units): 0.37 | EC50 ([6]; Mus musculus, read-out: CTG BaF3myr-Akt2, Mean, mean of replicates): 1480 nM | EC50 ([6]; read-out: CTG BaF3myr-Akt2, individual determinations, single replicates): 1640 nM and 2110 nM and 691 nM | Ki ([7]; Ki Akt1): 6 ± 1 nM | Ki ([7]; Ki Akt1, Mean, mean of replicates): 6.62 nM | Ki ([7]; Ki Akt1, individual determinations, single replicates): 4.2 nM and 7.8 nM and 7.9 nM | kinact/KI ([7]; read-out: kinact /Ki Akt1): 32000 ± 5000 M⁻¹ s⁻¹ | kinact/KI ([7]; read-out: kinact /Ki Akt1, Mean, mean of replicates): 44000 M⁻¹ s⁻¹ | kinact ([7]; read-out: kinact Akt1): 0.000167 s⁻¹ | kinact ([7]; read-out: kinact Akt1, Mean, mean of replicates): 0.000267 s⁻¹ | kinact ([7]; read-out: kinact Akt1, individual determinations, single replicates): 0.000267 s⁻¹ | kinact Akt1, individual determinations ([7]; single replicates): 0.014 min⁻¹ and 0.018 min⁻¹ | EC50 ([8]; Mus musculus, read-out: CTG BaF3myr-Akt3, Mean, mean of replicates): 18200 nM | EC50 ([8]; read-out: CTG BaF3myr-Akt3, individual determinations, single replicates): 10300 nM and 26000 nM and 21500 nM
Structure (SMILES): C=CC(=O)Nc1ccc2[nH]c(=O)n(C3CCN(Cc4ccc(-c5ncc(C(=O)Nc6cccc(N)c6)cc5-c5ccccc5)cc4)CC3)c2c1 [compound 18]
Log ratio EC50 [Akt] / EC50 [Akt], Akt1 / Akt2 [4, 10]: 1.08 | Log ratio EC50 [Akt] / EC50 [Akt], Akt3 / Akt2 [8, 10]: -1.09 | EC50 ([9]; Mus musculus, BaF3, CTG, parental BaF3 cell line, read-out: EC50 BaF3): > 30000 nM | EC50 ([9]; Mus musculus, BaF3, parental cells, mean of replicates, read-out: CTG BaF3, Mean): > 30000 nM | EC50 ([9]; Mus musculus, BaF3, parental cells, single replicates, read-out: CTG BaF3, individual determinations): > 30000 nM | EC50 ([9]; parental cells, single replicates, read-out: CTG BaF3, individual determinations): > 30000 nM
